Laboratory results published in US8853228B2, “Heterocyclic analogs of propargyl-linked inhibitors of dihydrofolate reductase” (University of Connecticut, priority 2011, dated 2014).
≈ marks a conversion by molar mass, not a printed value. Like-named read-outs stand apart in the source and are kept apart here.

Assays:
hDHFR = hDHFR (Homo sapiens (Human), UniProt P00374); assay: hDHFR enzyme inhibition assay; type: biochemical
Description: hDHFR: The gene for hDHFR was amplified using PCR from cDNA obtained from ATCC. The gene was inserted in a pET41 vector with a C-terminal histidine tag for affinity chromatography. The resulting construct was verified by sequencing. The hDHFR protein was expressed in E. coli and purified using a nickel affinity column.
(§1) Enzyme and inhibitor were allowed to incubate for 5 min before adding dihydrofolate to initiate the reaction. Enzyme assays were performed at least four times. IC50 values and their standard deviations were calculated in the presence of varying concentrations of inhibitor near the IC50 concentration.
(§2) Enzyme inhibition assays were performed by monitoring the rate of NADPH oxidation by the DHFR enzyme at an absorbance of 340 nm. Assays were performed in the presence of saturating concentrations of NADPH and initiated with dihydrofolate. All assays were completed at 25° C. in a buffer containing 20 mM TES pH 7.0, 50 mM KCl, 10 mM 2-mercaptoethanol, 0.5 mM EDTA and 1 mg/mL BSA. Inhibition was measured at least three times with inhibitor concentrations near the IC50 value and the average IC50 value is reported with a standard deviation.

C. glabrata = assay: Antifungal assay (MIC, Alamar Blue); type: cell-based, Candida glabrata; details: for MIC: Nakaseomyces glabratus; for antifungal properties against C. glabrata: result in words
Description: Antifungal assays were performed using C. glabrata as a suspension in 50% glycerol at −78° C. For susceptibility testing, a streak of stock culture was made on SDA agar and grown at 30° C. for 48 h. One pure colony of the test organism was recovered from the plate, suspended in appropriate media and grown in a 5 mL shake flask culture. A sample of the shake flask culture was diluted to 1×10^5 cells/mL in media and added to 96-well test plates (100 μL per well) containing test compounds dispensed in DMSO (1 μL). Amphotericin and ketoconazole were used as controls. After an incubation period determined from the strain specific doubling time, Alamar Blue (10 μL) was added, allowed to incubate; each well was scored for dye reduction.
Several representative compounds were also evaluated in thymidine-depleted media. It has been shown that high levels of thymidine interfere with accurate susceptibility testing of antifolates. To compensate for this, antifolates are frequently evaluated in a controlled minimal media with a low thymidine concentration. […] In addition, the compounds were also evaluated for mammalian cell toxicity using MCF-10 and HepG2 cell lines. Cellular selectivity is reported as the IC50 value for the MCF-10 human cell line divided by the MIC value (μg/mL) (Table 8).

CgDHFR = CgDHFR (Candida glabrata (strain ATCC 2001 / BCRC 20586 / JCM 3761 / NBRC 0622 / NRRL Y-65 / CBS 138) (Yeast) (Nakaseomyces glabratus), UniProt Q6FPH0); assay: biochemical; details: for Selectivity: Table 7, hDHFR vs CgDHFR
Chain of CgDHFR (Q6FPH0 1-217): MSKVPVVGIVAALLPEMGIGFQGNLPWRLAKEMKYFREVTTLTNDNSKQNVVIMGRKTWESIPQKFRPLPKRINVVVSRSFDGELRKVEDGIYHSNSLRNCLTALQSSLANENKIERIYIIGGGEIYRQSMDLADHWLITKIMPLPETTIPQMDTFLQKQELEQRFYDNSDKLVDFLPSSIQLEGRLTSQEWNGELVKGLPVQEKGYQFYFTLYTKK
From the text: CgDHFR: The gene coding CgDHFR was amplified by PCR from C. glabrata genomic DNA obtained from ATCC. The gene was inserted in a pET41 vector that includes a C-terminal histidine tag for nickel affinity chromatography. E. coli cells were transformed and the resulting plasmid was verified by sequencing. The protein was expressed in E. coli BL21(DE3) cells with isopropyl β-D-thiogalactoside induction. Following growth, the cells were lysed with BugBuster (Novagen) and centrifuged; the supernatant was loaded on a Ni-NTA column. The column was washed with 20 mM Tris (pH 8.0)/0.4 M NaCl and the protein was eluted using a gradient of 20 mM Tris (pH 8.0), 0.3 M NaCl, 20% glycerol, 0.1 mM EDTA, 2 mM DTT, 250 mM imidazole. Fractions containing CgDHFR were identified by SDS-PAGE, combined and desalted using a PD-10 column with a buffer containing 20 mM Tris pH 8.0, 20% glycerol, 0.1 mM EDTA and 2 mM DTT. The protein was concentrated to 13 mg/mL.
as §1

Measured solubility = type: physicochemical; details: in 200 mcg/mL HPMC and 0.2% DMSO
ChDHFR-TS = ChDHFR-TS (Cryptosporidium hominis, UniProt Q27552); assay: ChDHFR enzyme inhibition assay; type: biochemical
Chain of ChDHFR-TS (Q27552 1-521): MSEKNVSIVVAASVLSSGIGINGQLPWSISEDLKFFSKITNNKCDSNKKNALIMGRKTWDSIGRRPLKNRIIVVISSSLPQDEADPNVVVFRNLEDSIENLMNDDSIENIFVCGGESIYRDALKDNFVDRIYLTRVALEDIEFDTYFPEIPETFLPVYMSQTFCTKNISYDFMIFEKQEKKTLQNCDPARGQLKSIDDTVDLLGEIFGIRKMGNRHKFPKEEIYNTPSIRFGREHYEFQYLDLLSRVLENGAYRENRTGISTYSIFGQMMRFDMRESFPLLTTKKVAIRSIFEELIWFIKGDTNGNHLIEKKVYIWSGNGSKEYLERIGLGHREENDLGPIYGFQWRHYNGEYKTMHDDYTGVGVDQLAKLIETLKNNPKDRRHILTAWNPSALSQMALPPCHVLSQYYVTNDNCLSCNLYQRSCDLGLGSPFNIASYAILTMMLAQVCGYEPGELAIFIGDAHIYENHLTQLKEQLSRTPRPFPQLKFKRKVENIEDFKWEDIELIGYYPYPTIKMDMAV
Description: as §1
Compounds were evaluated in spectrophotometric enzyme assays using ChDHFR-TS and hDHFR. Inhibition constants (IC50) were measured (see Table 4). […] The compound abbreviations in Table 4 refer to the following compounds: […]

TgDHFR = TgDHFR (Toxoplasma gondii, UniProt Q07422, DEL43-70); assay: TgDHFR enzyme inhibition assay; type: biochemical
Chain of TgDHFR (Q07422 71-250, added parts left off, stated change not applied): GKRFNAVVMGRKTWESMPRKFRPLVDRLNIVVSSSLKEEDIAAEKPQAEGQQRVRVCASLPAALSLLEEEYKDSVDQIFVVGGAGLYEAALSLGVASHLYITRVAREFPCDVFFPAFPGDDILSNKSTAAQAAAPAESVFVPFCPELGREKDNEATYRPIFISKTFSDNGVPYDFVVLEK
Description: These residues were removed, leaving a five residue loop region characteristic of several other species of DHFR.
as §1

mammalian cell lines = details: result in words
S. aureus 13709 (MRSA) = assay: Antibacterial MIC, broth microdilution with Alamar Blue; type: cell-based, Staphylococcus aureus
Description: (§3) For susceptibility testing, 10 μL of glycerol stock was suspended in a 10 mL shake flask culture of chemically defined Isosensitest broth (Oxoid) supplemented with 2% w/v glucose. A sample of the shake flask culture was diluted to 1×10^6 cells/mL in media and added to 96-well test plates (100 μL per well) containing test compounds dispensed in DMSO (2 μL). After an incubation period (30° C.) determined from the strain specific doubling time, a 0.03% w/v aqueous solution of resazurin (10 μL) was added and the plates were allowed to incubate; each well was then scored for dye reduction.

S. aureus DHFR = S. aureus DHFR (Staphylococcus aureus, UniProt P0A017); type: biochemical
Description: as §2

HepG2 cells = assay: Mammalian cell toxicity, HepG2; type: cell-based; details: cytotoxicity, Table 6
Description: (§4) Adherent cell lines were maintained in Eagle's Minimal Essential Media (Sigma-Aldrich, St. Louis, Mo., USA) with 2 mM glutamine and Earle's Balanced Salt Solution (HyClone, Logan, Utah, USA) adjusted to contain 1.5 g/L sodium bicarbonate, 0.1 mM non-essential amino acids, 1 mM sodium pyruvate and 10% fetal calf serum. Fetal calf serum used in these assays was lot matched throughout. […] Toxicity assays were conducted between passages 10-20. Target compound toxicity was measured by incubating the test compound with the cells for 4 h, washing the cells and finally treating the cells with Alamar Blue. After 12-24 h, the fluorescence of the reduced dye was measured. Fluorescence intensity as a function of test compound concentration was fit to the Fermi equation, using non-linear least squares regression analysis, to estimate IC50 values.

S. pyogenes DHFR = S. pyogenes DHFR (Streptococcus pyogenes, UniProt Q9A091); assay: S. pyogenes DHFR enzyme inhibition assay; type: biochemical
Chain of S. pyogenes DHFR (Q9A091 1-165): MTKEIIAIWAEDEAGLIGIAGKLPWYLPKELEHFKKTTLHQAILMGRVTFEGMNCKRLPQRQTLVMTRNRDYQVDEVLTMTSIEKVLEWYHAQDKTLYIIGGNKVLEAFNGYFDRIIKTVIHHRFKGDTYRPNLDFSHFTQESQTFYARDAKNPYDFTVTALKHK
Description: as §2

Streptococcus pyogenes = assay: Antibacterial MIC, broth microdilution with Alamar Blue; type: cell-based
Description: as §3

MCF-10 cells = assay: Mammalian cell toxicity, MCF-10; type: cell-based, human; details: cytotoxicity
Description: as §4

[1] = Table 7, read-out: IC50 (hDHFR)
[2] = Table 7, read-out: IC50 (CgDHFR)
[3] = Table 4, read-out: IC50 (ChDHFR)
[4] = C. glabrata, Inact: not active at 2 mM (~600 μg/mL), read-out: Antifungal activity MIC
[5] = average of at least three measurements

Chain of hDHFR (P00374 whole entry): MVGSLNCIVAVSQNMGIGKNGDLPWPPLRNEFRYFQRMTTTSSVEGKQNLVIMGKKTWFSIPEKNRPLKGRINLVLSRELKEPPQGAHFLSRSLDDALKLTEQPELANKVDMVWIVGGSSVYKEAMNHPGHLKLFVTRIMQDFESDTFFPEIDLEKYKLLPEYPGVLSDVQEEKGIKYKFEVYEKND

Question: Which results are given for COc1cc(C(C)C#Cc2c(C)nc(N)nc2N)cc(N2CCNCC2)c1 (stereo not drawn) [Compound 159]?
Answer: IC50 (hDHFR; [1]): 270 ± 46 nM; MIC (Cg) (C. glabrata; C. glabrata, YM media): Inact; Selectivity (CgDHFR): 1.9 ± 0.4; IC50 (CgDHFR; [2]): 143 ± 10 nM; Solubility (Measured solubility): 60 µg/mL (≈ 164 µM)

Question: With COc1cc(-c2ccccc2)cc(C(C)C#Cc2c(C)nc(N)nc2N)c1 (racemic) [Compound 139, 5-[3-(5-methoxy-biphenyl-3-yl)but-1-yn-1-yl]-6-methylpyrimidine-2,4-diamine] as the compound, how does the IC50 (ChDHFR-TS; [3]) read?
Answer: 1.8 nM

Question: And the MIC (C. glabrata; C. glabrata, YM media, read-out: MIC (Cg))?
Answer: 11 µg/mL (≈ 30.7 µM)

Question: And the Solubility (Measured solubility; aqueous with cosolvent or surfactant or cyclodextrin, kinetic from dmso stock, read-out: Solubility)?
Answer: 20 µg/mL (≈ 55.8 µM)

Question: With COc1cc([C@@H](C)C#Cc2c(C)nc(N)nc2N)cc(OC)c1OC (racemic) [Compound X, 6-methyl-5-[3-(3,4,5-trimethoxyphenyl)but-1-yn-1-yl]pyrimidine-2,4-diamine] as the compound, how does the IC50 (ChDHFR-TS; IC50 (ChDHFR), Table 4) read?
Answer: 169 ± 6 nM

Question: What about the IC50 (ChDHFR-TS; IC50 against ChDHFR) of the same compound?
Answer: < 100000 nM

Question: And the IC50 (ChDHFR-TS; read-out: IC50 against ChDHFR)?
Answer: 38 nM

Question: What about the IC50 (TgDHFR; read-out: IC50 against TgDHFR) of the same compound?
Answer: < 100 µM

Question: What about the MIC (C. glabrata; [4]) of the same compound?
Answer: 21 µg/mL (≈ 61.3 µM)

Question: And the “antifungal properties against C. glabrata” value (C. glabrata)?
Answer: exhibited antifungal properties

Question: What about the IC50 (CgDHFR; CgDHFR IC50, Table 3) of the same compound?
Answer: 25 nM

Question: And the IC50 (CgDHFR; IC50 against CgDHFR)?
Answer: ≤ 25 nM

Question: For COc1cc(CC#Cc2c(C)nc(N)nc2N)cc(OC)c1OC [Compound 5, 6-methyl-5-[3-(3,4,5-trimethoxyphenyl)prop-1-yn-1-yl]pyrimidine-2,4-diamine], which IC50 (ChDHFR-TS; IC50 against ChDHFR) is on record?
Answer: < 100000 nM

Question: What about the IC50 (hDHFR; Table 3, read-out: hDHFR IC50) of the same compound?
Answer: 400 nM

Question: What about the IC50 (TgDHFR) of the same compound?
Answer: < 100 µM

Question: What about the MIC (C. glabrata; [4]) of the same compound?
Answer: 20 µg/mL (≈ 60.9 µM)

Question: And the “antifungal properties against C. glabrata” value (C. glabrata)?
Answer: exhibited antifungal properties

Question: What about the IC50 (CgDHFR; IC50 against CgDHFR) of the same compound?
Answer: ≤ 25 nM

Question: What about the IC50 (CgDHFR; Table 3, read-out: CgDHFR IC50) of the same compound?
Answer: 17 nM

Question: What does the source list for COc1cc(-c2c(C(C)C)cccc2C(C)C)ccc1C(C)C#Cc1c(C)nc(N)nc1N (stereo not drawn) [Compound F26I, 5-[3-(3-methoxy-2′6′-diisopropylbiphenyl-4-yl)but-1-yn-1-yl]-6-methylpyrimidine-2,4-diamine]?
Answer: Selectivity Ratio (IC50 ChDHFR/IC50 hDHFR) (ChDHFR-TS; Table 4): 262; IC50 (ChDHFR-TS; [3]): 16 nM; IC50 (hDHFR; Table 4, read-out: IC50 (hDHFR)): 4200 ± 0.1 nM; mammalian cell toxicity (mammalian cell lines): display mammalian cell toxcity

Question: Which IC50 (hDHFR; [1]) does the source give for CCc1nc(N)nc(N)c1C#CC(C)c1cc(OC)cc(N2CCOCC2)c1 (stereo not drawn) [Compound 153] here?
Answer: 250 ± 4 nM

Question: And the “MIC (Cg)” value (C. glabrata; C. glabrata, YM media)?
Answer: 12 µg/mL (≈ 31.5 µM)

Question: And the Selectivity (CgDHFR)?
Answer: 11 ± 1

Question: And the IC50 (CgDHFR; [2])?
Answer: 22 ± 2 nM

Question: And the Solubility (Measured solubility)?
Answer: 80 µg/mL (≈ 210 µM)

Question: With COc1cc(C(C)C#Cc2c(C)nc(N)nc2N)cc(N2CCOCC2)c1 (stereo not drawn) [Compound 152] as the compound, how does the “Selectivity MRSA” value (S. aureus 13709 (MRSA); IC50 (MCF10)/MIC (pathogen)) read?
Answer: 159

Question: And the “MIC MRSA” value (S. aureus 13709 (MRSA); Table 6)?
Answer: 2.9 µg/mL (≈ 7.89 µM)

Question: And the IC50 (hDHFR; Table 5, average of at least three measurements, read-out: IC50 human)?
Answer: 400 ± 40 nM

Question: And the IC50 (hDHFR; [1])?
Answer: 400 ± 40 nM

Question: What about the “Selectivity (h/Sa)” value (S. aureus DHFR; IC50 (human)/IC50 (pathogen)) of the same compound?
Answer: 14

Question: What about the IC50 (S. aureus DHFR; [5]) of the same compound?
Answer: 29 ± 2 nM

Question: And the IC50 (HepG2 cells)?
Answer: 494 µM

Question: What about the “Selectivity (h/Sp)” value (S. pyogenes DHFR; IC50 (human)/IC50 (pathogen)) of the same compound?
Answer: 15

Question: What about the IC50 (S. pyogenes DHFR; [5]) of the same compound?
Answer: 26 ± 4 nM

Question: What about the “Selectivity S. pyogenes” value (Streptococcus pyogenes; IC50 (MCF10)/MIC (pathogen)) of the same compound?
Answer: 19,250

Question: What about the “MIC S. pyogenes” value (Streptococcus pyogenes; Table 6) of the same compound?
Answer: 0.024 µg/mL (≈ 0.0653 µM)

Question: What about the “MIC (Cg)” value (C. glabrata; C. glabrata, YM media) of the same compound?
Answer: 12 µg/mL (≈ 32.7 µM)

Question: And the “Selectivity Index” value (C. glabrata; IC50 (MCF-10)/MIC (C. glabrata))?
Answer: 330

Question: And the “MIC C. glabrata” value (C. glabrata; IsoSensitest media supplemented with 2% glucose (thymidine-depleted))?
Answer: 1.4 µg/mL (≈ 3.81 µM)

Question: What about the Selectivity (CgDHFR) of the same compound?
Answer: 20 ± 4

Question: And the IC50 (CgDHFR; [2])?
Answer: 20 ± 3 nM

Question: And the Solubility (Measured solubility)?
Answer: 80 µg/mL (≈ 218 µM)

Question: And the IC50 (MCF-10 cells; Table 6)?
Answer: 462 µM

Question: What about the IC50 (MCF-10 cells; Table 8) of the same compound?
Answer: 462 µM

Question: Which results are given for COc1cc([C@H](C)C#Cc2c(C)nc(N)nc2N)cc(OC)c1OC [138(S), 2,4-Diamino-5-((S)-3-(3,4,5-trimethoxyphenyl)but-1-ynyl)-6-methylpyrimidine]?
Answer: IC50 (ChDHFR-TS; IC50 against ChDHFR): < 100000 nM; IC50 (TgDHFR): < 100 µM

Question: Which results are given for COc1cc(CC#Cc2cnc(N)nc2N)cc(OC)c1OC [Compound 1, 5-[3-(3,4,5-trimethoxyphenyl)prop-1-yn-1-yl]pyrimidine-2,4-diamine]?
Answer: IC50 (ChDHFR-TS; IC50 against ChDHFR): < 100000 nM; IC50 (TgDHFR): < 100 µM; Antifungal activity MIC (C. glabrata; C. glabrata, Inact: not active at 2 mM (~600 μg/mL)): Inact*; IC50 (CgDHFR; CgDHFR IC50, Table 3): 33 nM
